Data published in patent US20140357487A1, “PLANTS HAVING INCREASED TOLERANCE TO HERBICIDES” (BASF SE, priority 2011, published 2014).

Assays:
Rhodococcus HPPD2 = test: HPPD activity assay, Rhodococcus HPPD2; assay type: biochemical; conditions: normalized on Arabidopsis wild-type HPPD
Method: (§1) HPPD produces homogentisic acid and CO2 from 4-hydroxyphenylpyruvate (4-HPP) and O2. The activity assay for HPPD is based on the analysis of homogentisic acid by reversed phase HPLC.
(§2) The assay mixture can contain 150 mM potassium phosphate buffer pH 7.0, 50 mM L-ascorbic acid, 1 μM FeSO4 and 7 μg of purified enzyme in a total volume of 1 ml.
(§3) Inhibitors are dissolved in DMSO (dimethylsulfoxide) to a concentration of 20 mM or 0.5 mM, respectively. From this stock solution serial five-fold dilutions are prepared in DMSO, which are used in the assay. The respective inhibitor solution accounts for 1% of the assay volume. Thus, final inhibitor concentrations range from 200 μM to 2.5 nM or from 5 μM to 63 pM, respectively. After a preincubation of 30 min the reaction is started by adding 4-HPP to a final concentration of 0.1 mM. The reaction is allowed to proceed for 120 min at room temperature. The reaction is stopped by addition of 100 μl of 4.5 M phosphoric acid.
(§4) Activities are normalized by setting the uninhibited enzyme activity to 100%. IC50 values are calculated using non-linear regression.
(§5) The assay mixture can contain 150 mM potassium phosphate buffer pH 7.0, 50 mM L-ascorbic acid, 100 μM Catalase (Sigma-Aldrich), 1 μM FeSO4 and 0.2 units of purified HPPD enzyme in a total volume of 505 μl. […]
(§6) Inhibitors are dissolved in DMSO (dimethylsulfoxide) to a concentration of 0.5 mM. […] IC50 values are calculated using non-linear regression.
(§7) Using methods which are described in the above examples or well known in the art, purified, recombinant wildtype HPPD enzymes are characterized with respect to their kinetic properties and sensitivity towards HPPD inhibiting herbicides. Apparent michaelis constants (Km) and maximal reaction velocities (Vmax) are calculated by non-linear regression with the software GraphPad Prism 5 (GraphPad Software, La Jolla, USA) using a substrate inhibition model. […] Weighted means (by standard error) of Km and […] values are calculated from at least three independent experiments. […]

[1] = target: T1, Hordeum HPPD variant V212L (Hordeum vulgare, UniProt O48604, A164G/R146V/R147D/R148G/V212L); test: HPPD activity assay, Hordeum HPPD mutant V212L; assay type: biochemical; conditions: normalized on Hordeum wild-type HPPD
T1 construct: His (N); made in house; host or cells: E. coli BL21 (DE3)
Method: as §1, §2
as §3, with “Thus, final inhibitor concentrations range from 200 μM to 2.5 nM or from 5 μM to 63 pM, respectively.” left out
as §4
(§8) The assay mixture can contain 150 mM potassium phosphate buffer pH 7.0, 50 mM L-ascorbic acid, 100 μM Catalase (Sigma-Aldrich), 1 μM FeSO4 and 0.2 units of purified HPPD enzyme in a total volume of 505 μl. 1 unit is defined as the amount of enzyme that is required to produce 1 nmol of HGA per minute at 20° C.
(§9) Inhibitors are dissolved in DMSO (dimethylsulfoxide) to a concentration of 0.5 mM. From this stock solution serial five-fold dilutions are prepared in DMSO, which are used in the assay. The respective inhibitor solution accounts for 1% of the assay volume. […] Activities are normalized by setting the uninhibited enzyme activity to 100%. IC50 values are calculated using non-linear regression.
(§10) Purified, mutant HPPD enzymes are obtained by the methods described above. Dose response and kinetic measurements are carried out using the described HPPD activity assay. Apparent michaelis constants (Km) and maximal reaction velocities (Vmax) are calculated by non-linear regression with the software GraphPad Prism 5 (GraphPad Software, La Jolla, USA) using a substrate inhibition model.
(§11) Field performance of the optimized HPPD enzyme, which is used as a herbicide tolerance trait may depend not only on its lack of sensitivity towards HPPD inhibiting herbicides but also on its activity. To assess the potential performance of a herbicide tolerance trait a tolerance index (TI) is calculated using the following formula: […]
(§12) Easy comparison and ranking of each trait is enabled by normalizing tolerance indexes on Arabidopsis or Hordeum wild-type HPPD.

Lolium HPPD = test: HPPD activity assay, Lolium HPPD; assay type: biochemical; conditions: normalized on Arabidopsis wild-type HPPD
Method: as §1, §2, §3, §4, §8
(§13) Inhibitors are dissolved in DMSO (dimethylsulfoxide) to a concentration of 0.5 mM. From this stock solution serial five-fold dilutions are prepared in DMSO, which are used in the assay. The respective inhibitor solution accounts for 1% of the assay volume. Thus, final inhibitor concentrations range from 5 μM to 320 pM, respectively. Activities are normalized by setting the uninhibited enzyme activity to 100%. IC50 values are calculated using non-linear regression.
as §7
as §11, with “of the HPPD enzyme,” for “of the optimized HPPD enzyme,”, “herbicide tolerance trait, may depend” for “herbicide tolerance trait may depend”

[2] = target: T2, Hordeum HPPD variant G407C (Hordeum vulgare, UniProt O48604, A164G/G407C/R146V/R147D/R148G); test: HPPD activity assay, Hordeum HPPD mutant G407C; assay type: biochemical; conditions: normalized on Hordeum wild-type HPPD
T2 construct: His (N); made in house; host or cells: E. coli BL21 (DE3)
Method: as §1, §2
as §3, with “Thus, final inhibitor concentrations range from 200 μM to 2.5 nM or from 5 μM to 63 pM, respectively.” left out
as §4, §8, §9, §10, §11, §12

[3] = target: T3, Hordeum HPPD variant L320Q (Hordeum vulgare, UniProt O48604, A164G/L320Q/R146V/R147D/R148G); test: HPPD activity assay, Hordeum HPPD mutant L320Q; assay type: biochemical; conditions: normalized on Hordeum wild-type HPPD
T3 construct: His (N); made in house; host or cells: E. coli BL21 (DE3)
Method: as §1, §2
as §3, with “Thus, final inhibitor concentrations range from 200 μM to 2.5 nM or from 5 μM to 63 pM, respectively.” left out
as §4, §8, §9, §10, §11, §12

Picrophilus HPPD = test: HPPD activity assay, Picrophilus HPPD; assay type: biochemical; conditions: normalized on Arabidopsis wild-type HPPD
Method: as §1, §2, §3, §4, §5, §6, §7

Avena HPPD = test: HPPD activity assay, Avena HPPD; assay type: biochemical, Avena sativa; conditions: normalized on Arabidopsis wild-type HPPD
Method: as §1, §2, §3, §4, §8, §13, §7
as §11, with “of the HPPD enzyme,” for “of the optimized HPPD enzyme,”, “herbicide tolerance trait, may depend” for “herbicide tolerance trait may depend”

T2 sequence (O48604 whole entry R146V/R147D/R148G/A164G/G407C): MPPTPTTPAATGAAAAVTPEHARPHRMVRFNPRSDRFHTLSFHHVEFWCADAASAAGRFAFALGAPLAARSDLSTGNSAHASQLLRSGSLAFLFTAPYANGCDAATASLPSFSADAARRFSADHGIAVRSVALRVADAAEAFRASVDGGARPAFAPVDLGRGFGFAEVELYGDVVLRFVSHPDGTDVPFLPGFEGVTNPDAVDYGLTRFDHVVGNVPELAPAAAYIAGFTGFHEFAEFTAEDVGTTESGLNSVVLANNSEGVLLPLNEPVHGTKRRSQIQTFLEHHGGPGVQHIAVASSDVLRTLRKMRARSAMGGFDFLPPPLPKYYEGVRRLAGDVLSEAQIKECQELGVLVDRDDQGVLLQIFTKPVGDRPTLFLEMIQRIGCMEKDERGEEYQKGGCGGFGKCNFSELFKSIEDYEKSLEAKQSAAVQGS
T1 sequence (O48604 whole entry R146V/R147D/R148G/A164G/V212L): as the sequence (O48604 whole entry R146V/R147D/R148G/A164G/G407C) above, with V212L, C407G counted along it
T3 sequence (O48604 whole entry R146V/R147D/R148G/A164G/L320Q): as the sequence (O48604 whole entry R146V/R147D/R148G/A164G/G407C) above, with L320Q, C407G counted along it

Structure (SMILES) | Normalized tolerance index TI (Rhodococcus HPPD2) | Normalized tolerance index TI [1] | Normalized tolerance index TI (Lolium HPPD) | Normalized tolerance index TI [2] | Normalized tolerance index TI [3] | Normalized tolerance index TI (Picrophilus HPPD) | Normalized tolerance index TI (Avena HPPD)
COCCOCc1c(Cl)ccc(C2=C(O)c3ncccc3C(C)(C)S2(=O)=O)c1Cl [Inhibitor 3, 7-[2,4-dichloro-3-(2-methoxyethoxymethyl)phenyl]-5,5-dimethyl-6,6-dioxo-thiopyrano[4,3-b]pyridin-8-ol] | 2.1 | 0.7 | 0.3 | 2.4 | 2.4 | 17.2 | 0.1
CC1(C)c2cccnc2C(O)=C(c2ccc(Cl)nc2Cl)S1(=O)=O [Inhibitor 2, 7-(2,6-dichloro-3-pyridyl)-5,5-dimethyl-6,6-dioxo-thiopyrano[4,3-b]pyridin-8-ol] | 11.4 | 1.1 | 1.8 | 2 | 0.7 | 86.4 | 2.8
CC1=NOC(c2c(Cl)ccc(C3=C(O)c4ncccc4C(C)(C)S3(=O)=O)c2Cl)C1 (stereo not drawn) [Inhibitor 1, 7-[2,4-dichloro-3-(3-methyl-4,5-dihydroisoxazol-5-yl)phenyl]-5,5-dimethyl-6,6-dioxo-thiopyrano[4,3-b]pyridin-8-ol] | 73 | 0.8 | 4.2 | 2.7 | 2.1 | 283 | 4.7
